Data from BindingDB's records for doi:10.2174/1568007033482805 (University of Sydney, 2003).

Molecular target: T1, Gamma-aminobutyric acid receptor subunit alpha-3 (Homo sapiens, UniProt P34903)
T1 sequence (P34903 whole entry): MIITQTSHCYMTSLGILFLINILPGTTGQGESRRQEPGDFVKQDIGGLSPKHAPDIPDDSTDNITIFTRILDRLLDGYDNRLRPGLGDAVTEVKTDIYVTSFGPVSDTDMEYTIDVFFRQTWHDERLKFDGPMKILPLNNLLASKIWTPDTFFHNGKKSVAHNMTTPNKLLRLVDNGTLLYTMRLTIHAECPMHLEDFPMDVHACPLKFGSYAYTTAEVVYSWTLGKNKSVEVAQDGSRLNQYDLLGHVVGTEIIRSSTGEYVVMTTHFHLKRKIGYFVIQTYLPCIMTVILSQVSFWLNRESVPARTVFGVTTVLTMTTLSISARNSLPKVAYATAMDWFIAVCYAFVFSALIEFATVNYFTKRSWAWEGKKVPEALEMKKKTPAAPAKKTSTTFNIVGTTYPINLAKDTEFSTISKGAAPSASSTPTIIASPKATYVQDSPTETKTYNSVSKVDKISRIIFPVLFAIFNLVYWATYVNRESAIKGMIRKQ

## O=c1[nH][nH]c2c1CCNC2 [THIP, Aza-]
  Ki: > 10 µM

## O=c1o[nH]c2c1CCNC2 [NSC_130546]
  Ki: 7.9 µM
